Like-named read-outs stand apart in the source and are kept apart here.
Key:
[1] = reported in literature; cited from earlier work
Na^+,K^+ -ATPase = conditions: reported in literature; cited from earlier work
[2] = test system: spontaneous hypertensive rats (MHS); assay: effect of 5 week-treatment in spontaneous hypertensive rats (MHS) on the development of hypertension (SBP and HR, tail cuff); type: in vivo, rat; conditions: 10 mg/Kg/os daily in Methocel 0.5% w/v, 5 weeks
Description: Systolic blood pressure (SBP) and heart rate (HR) were measured, by the tail cuff method, in young prehypertensive male rats (MHS or SHR) strains before the development of hypertension (4 weeks of age) for recording the basal values of SBP. Groups of 7 rats were formed and subdivided in control and treated groups. The compound, suspended in Methocel 0.5% (w/v), was orally given daily for at least 5 weeks to the treated groups. The control group received only Methocel. SBP and HR were measured weekly 6 and 24 hrs after treatment. After 5 weeks of treatment, when hypertension was fully developed in the control group (9 weeks of age), washout was started for at least one week, to verify whether the treatment maintained blood pressure low or reestablished the basal values. […] (Takeda K. et al., Japan J. Pharmacol., 1979, 29,171; Takeda K. et al. Japan J. Pharmacol., 1982, 32, 283; Richer C. et al. Eur. J. Pharmacol, 1978, 47,393).

[3] = target: Na^+, K^+ -ATPase receptor (Homo sapiens, UniProt P05023); assay: displacement of the specific 3H-ouabain binding from the Na+,K+-ATPase receptor
[4] = target: purified Na^+,K^+ -ATPase (Homo sapiens, UniProt P05023); assay: inhibition of the activity of the purified Na+,K+-ATPase (% hydrolysis of 32P-ATP); type: biochemical; conditions: read-out: Inhibitory Activity log IC50 (converted)
[5] = displacement of specific 3H-ouabain binding, read-out: Binding ^3 H-Ouab. Displacement log IC50 (converted)

SMILES | IC50 [3, 5] [nM] | IC50 ([4]; purified Na+,K+-ATPase) [µM] | further results
C[C@]12CC[C@H](O)C[C@H]1CC[C@@H]1[C@@H]2CC[C@]2(C)C(=NNC(=N)N)CC[C@]12O [17-guanidinoimino-5β-androstane-3β,14β-diol] | – | – | positive inotropic activity [1]: weak positive inotropic agents; inhibition of Na+,K+-ATPase (Na^+,K^+ -ATPase): weak inhibitors of Na^+,K^+ -ATPase
C[C@]12CC[C@H](O)C[C@H]1CC[C@@H]1[C@@H]2CC[C@]2(C)[C@@H](C=NNC(=N)N)CC[C@]12O [17β-guanidinoiminomethyl-5β-androstane-3β,14β-diol] | – | – | positive inotropic activity [1]: weak positive inotropic agents; inhibition of Na+,K+-ATPase (Na^+,K^+ -ATPase): weak inhibitors of Na^+,K^+ -ATPase
C[C@]12CC[C@H](O)C[C@H]1CC[C@@H]1[C@@H]2CC[C@]2(C)[C@@H](/C=C/C=N/NC(=N)N)CC[C@]12O [Comp. I-aa, (E,E)-17β-(3-Guanidinoimino-1-propenyl)-5β-androstane-3β,14β-diol] | 25.1 | – | SBP (systolic blood pressure) ([2]; controls 172 +/- 3.5): 149 +/- 3.9 mm Hg; HR (heart rate) ([2]; controls 380 +/- 9.0): 373 +/- 10.0 beats/min.
C[C@]12CC[C@H](O)C[C@H]1CC[C@@H]1[C@@H]2CC[C@]2(C)[C@@H](/C=C/C=N/NC3=NCCCN3)CC[C@]12O [Comp. I-ag, (E,E)-17β-[3-(1,4,5,6-Tetrahydro-2-pyrimidinyl)hydrazono-1-propenyl]-5β-androstane-3β,14β-diol] | 39.8 | 1.58 | –
C[C@]12CC[C@H](O)C[C@H]1CC[C@@H]1[C@@H]2CC[C@]2(C)[C@@H](/C=C/C=N\NC3=NCCCN3)CC[C@]12O [Comp. I-ah, 17β-[3-(Z)-(1,4,5,6-Tetrahydro-2-pyrimidinyl)hydrazono-1-(E)-propenyl]-5β-androstane-3β,14β-diol] | – | – | IC50 [4]: 7.94 µM; IC50 [3]: 794 nM
CN(C)CCNC(=N)N/N=C/C=C/[C@H]1CC[C@]2(O)[C@@H]3CC[C@@H]4C[C@@H](O)CC[C@]4(C)[C@H]3CC[C@]12C [Comp. I-ai, (E,E)-17β-{3-[3-(2-Dimethylaminoethyl)guanidinoimino]-1-propenyl}-5β-androstane-3β,14β-diol] | 251 | – | IC50 [4]: 3.16 µM
C[C@]12CC[C@H](O)C[C@H]1CC[C@@H]1[C@@H]2CC[C@]2(C)[C@@H](/C=C/C=N/NC(=N)Nc3ccccc3)CC[C@]12O [Comp. I-aj, (E,E)-17β-[3-(3-Phenyl)guanidinoimino-1-propenyl]-5β-androstane-3β,14β-diol] | 1000 | – | IC50 [4]: 10 µM
C[C@]12CC[C@H](O)C[C@H]1CC[C@@H]1[C@@H]2CC[C@]2(C)[C@@H](/C=C/C=N/NC(N)=O)CC[C@]12O [Comp. I-ak, (E,E)-17β-(3-Semicarbazono)-1-propenyl-5β-androstane-3β,14β-diol] | 2000 | – | IC50 [4]: 25.1 µM
C[C@]12CC[C@H](O)C[C@H]1CC[C@@H]1[C@@H]2CC[C@]2(C)[C@@H](/C=C/C=N/NC(N)=S)CC[C@]12O [Comp. I-al, (E,E)-17β-(3-Thiosemicarbazono-1-propenyl)-5β-androstane-3β,14β-diol] | 3980 | 39.8 | –
CO/N=C/C=C/[C@H]1CC[C@]2(O)[C@@H]3CC[C@@H]4C[C@@H](O)CC[C@]4(C)[C@H]3CC[C@]12C [Comp. I-an, (E,E)-17β-(3-Methoxyimino-1-propenyl)-5β-androstane-3β,14β-diol] | 2000 | 20 | –
C[C@]12CC[C@H](O)C[C@H]1CC[C@@H]1[C@@H]2CC[C@]2(C)[C@@H](/C=C/C=N/OCCN)CC[C@]12O [Comp. I-ao, (E,E)-17β-[3-(2-Aminoethoxyimino)-1-propenyl]-5β-androstane-3β,14β-diol] | 15.8 | 0.02 | –
C[C@]12CC[C@H](O)C[C@H]1CC[C@@H]1[C@@H]2CC[C@]2(C)[C@@H](/C=C/C=N/OCCCN)CC[C@]12O [Comp. I-ap, (E,E)-17β-[3-(3-Aminopropoxyimino)-1-propenyl]-5β-androstane-3β,14β-diol] | – | 0.1 | IC50 [3]: 50.1 nM
C[C@]12CC[C@H](O)C[C@H]1CC[C@@H]1[C@@H]2CC[C@]2(C)[C@@H](/C=C/C=C/C=N/NC3=NCCN3)CC[C@]12O [Comp. I-av, (E,E,E)-17β-[5-(2-Imidazolin-2-yl)hydrazono-1,3-pentadienyl]-5β-androstane-3β,14β-diol] | 1000 | 10 | –
C[C@]12CC[C@H](O)C[C@H]1CC[C@@H]1[C@@H]2CC[C@]2(C)[C@@](O)(/C=C/C=N/NC3=NCCN3)CC[C@]12O [Comp. I-bp, (E,E)-17β-[3-(2-Imidazolin-2-yl)hydrazono-1-propenyl]-5β-androstane-3β,14β,17α-triol] | 631 | – | IC50 [4]: 7.94 µM
C[C@]12CC[C@H](OCCN3CCCC3)C[C@H]1CC[C@@H]1[C@@H]2CC[C@]2(C)[C@@H](/C=C/C=NNC(=N)N)CC[C@]12O [Comp. I-bx, 3β-[2-(1-Pyrrolidinyl)ethoxy]-17β-(3-(E,Z)-guanidinoimino-1-(E)-propenyl)-5β-androstane-3β,14β-diol] | 20 | 0.126 | –
CN(C)CCO/N=C/C=C/[C@H]1CC[C@]2(O)[C@@H]3CC[C@@H]4C[C@H](O)CC[C@]4(C)[C@H]3CC[C@]12C [Comp. I-ck, (E,E)-17β-[3-(2-Dimethylaminoethoxyimino)-1-propenyl]-5β-androstane-3α,14β-diol] | – | 0.0631 | IC50 [3]: 50.1 nM
C[C@]12CC[C@@H](O)C[C@H]1CC[C@@H]1[C@@H]2CC[C@]2(C)[C@@H](/C=C/C=N/NC(=N)N)CC[C@]12O [Comp. I-ej, (E,E)-17β-(3-Guanidinoimino-1-propenyl)-5β-androstane-3α,14β-diol] | – | 0.316 | IC50 [3]: 50.1 nM
C[C@]12CC[C@H](OCCCN)C[C@H]1CC[C@@H]1[C@@H]2CC[C@]2(C)[C@@H](/C=C/C=N/NC(=N)N)CC[C@]12O [qomp. I-cd, (E,E)-3β-(3-Aminopropoxy)-17β-(3-guanidinoimino-1-propenyl)-5β-androstane-3β,14β-diol] | 15.8 | 0.0794 | –

From patent US5583127A, “17-iminomethylalkenyl-5 β, 14 β-androstane and 17-iminoalkyl-5 β, 14 β-androstane derivatives active on the cardiovascular system, and pharmaceutical compositions containing same” (Sigma-Tau Industrie Farmaceutiche Riunite S.p.A., priority 1993, dated 1996)
